# Columns and labels:
# CB1 [1] = molecular target: T1, CB1 (Homo sapiens, UniProt P21554); experiment: CB1 Gαq16-coupled intracellular calcium mobilization assay in CHO-K1 cells; type: cell-based
# CB1 [2] = molecular target: T1, CB1; experiment: Radioligand displacement of [3H]CP55940 at CB1; type: binding; conditions: Ki vs CP55940
# [3] = In vivo evaluation of brain penetration; parameters: species or system rats; conditions: 10 mg/kg; for bioavailable with oral or intra-peritoneal dosing: oral or ip
# MDCK-mdr1 cells = experiment: MDCK-mdr1 permeability assay; conditions: apical to basal, 3.16 μM, 1 hr, 37°C, pH 7.4; % transported
# T1 sequence (P21554 whole entry): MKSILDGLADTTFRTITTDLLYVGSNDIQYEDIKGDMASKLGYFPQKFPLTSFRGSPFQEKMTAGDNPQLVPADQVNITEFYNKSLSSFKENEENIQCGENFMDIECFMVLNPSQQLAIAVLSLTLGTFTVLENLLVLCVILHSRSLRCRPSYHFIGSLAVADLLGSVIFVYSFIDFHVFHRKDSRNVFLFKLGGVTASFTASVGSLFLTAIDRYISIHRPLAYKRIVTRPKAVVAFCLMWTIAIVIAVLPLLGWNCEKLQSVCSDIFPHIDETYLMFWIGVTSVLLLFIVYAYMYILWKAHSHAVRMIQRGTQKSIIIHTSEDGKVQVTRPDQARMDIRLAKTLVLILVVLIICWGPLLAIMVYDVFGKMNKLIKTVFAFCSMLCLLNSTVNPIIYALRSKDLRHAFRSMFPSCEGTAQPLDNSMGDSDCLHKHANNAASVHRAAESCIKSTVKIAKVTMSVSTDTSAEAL
bioavailable with oral or intra-peritoneal dosing [3],SMILES,Kb (CB1 [1]),further results
–,"Cc1c(C(=O)N[C@H]2CCCN(S(C)(=O)=O)C2)nn(-c2ccc(Cl)cc2Cl)c1-c1ccc(Cl)cc1 [Compound 19d, 5-(4-Chlorophenyl)-1-(2,4-dichlorophenyl)-N-[(3S)-1-methanesulfonylpiperidin-3-yl]-4-methyl-1H-pyrazole-3-carboxamide]",62 nM,selectivity for CB1 versus CB2 (CB1 [2]): over 100 fold
bioavailable,"Cc1c(C(=O)N2CCC(NC(=O)NC(C)(C)C)(c3ccccc3)CC2)nn(-c2ccc(Cl)cc2Cl)c1-c1ccc(Cl)cc1 [Compound 17a, 3-tert-Butyl-1-(1-{[5-(4-chlorophenyl)-1-(2,4-dichlorophenyl)-4-methyl-1H-pyrazol-3-yl]carbonyl}-4-phenylpiperidin-4-yl)urea]",–,"Brain Conc. ([3]; Oral, 60 min, unperfused brain): below the lower limit of quantitation"
–,Cc1c(C(=O)NCC2CCC(CNS(C)(=O)=O)CC2)nn(-c2ccc(Cl)cc2Cl)c1-c1ccc(Cl)cc1 (stereo not shown) [Compound 7],–,MDCK-mdr1 permeability A to B (MDCK-mdr1 cells): <1%
–,Cc1c(C(=O)NCC2CCC(CNS(N)(=O)=O)CC2)nn(-c2ccc(Cl)cc2Cl)c1-c1ccc(Cl)cc1 (stereo not shown) [Compound 8],–,MDCK-mdr1 permeability A to B (MDCK-mdr1 cells): <1%
–,"Cc1c(C(=O)N[C@@H]2CCCN(S(C)(=O)=O)C2)nn(-c2ccc(Cl)cc2Cl)c1-c1ccc(Cl)cc1 [Compound 20d, 5-(4-Chlorophenyl)-1-(2,4-dichlorophenyl)-N-[(3R)-1-methanesulfonylpiperidin-3-yl]-4-methyl-1H-pyrazole-3-carboxamide]",7 nM,"potency relative to sulfonamide 7 (CB1 [1]; Ke CB1, fold more potent than 7): 16 fold; selectivity for CB1 versus CB2 (CB1 [2]): over 100 fold"
bioavailable,"Cc1c(C(=O)NC2CCN(C(=O)NC(C)(C)C)CC2)nn(-c2ccc(Cl)cc2Cl)c1-c1ccc(Cl)cc1 [Compound 18f, 1-N-tert-Butyl-4-C-5-(4-chlorophenyl)-1-(2,4-dichlorophenyl)-4-methyl-1H-pyrazole-3-piperidine-1,4-diamido]",–,–
–,"CCNC(=O)N1CCC[C@H](NC(=O)c2nn(-c3ccc(Cl)cc3Cl)c(-c3ccc(Cl)cc3)c2C)C1 [Compound 19e, (3S)-3-C-5-(4-Chlorophenyl)-1-(2,4-dichlorophenyl)-4-methyl-1H-pyrazole-3-1-N-ethylpiperidine-1,3-diamido]",280 nM,–
–,"Cc1c(C(=O)N[C@H]2CCCN(C(=O)NC(C)(C)C)C2)nn(-c2ccc(Cl)cc2Cl)c1-c1ccc(Cl)cc1 [Compound 19i, (3S)-1-N-tert-Butyl-3-C-5-(4-chlorophenyl)-1-(2,4-dichlorophenyl)-4-methyl-1H-pyrazole-3-piperidine-1,3-diamido]",206 nM,–
bioavailable,"Cc1c(C(=O)NC2CCN(C(=O)OC(C)(C)C)CC2)nn(-c2ccc(Cl)cc2Cl)c1-c1ccc(Cl)cc1 [Compound 18a, tert-Butyl-4-[5-(4-chlorophenyl)-1-(2,4-dichlorophenyl)-4-methyl-1H-pyrazole-3-amido]piperidine-1-carboxylate]",–,–
